Reference: ChEMBL document CHEMBL1201862, “PubChem BioAssay data set” (2004)
pEC50: −log10 of the molar value. The source made the active and inactive calls.

Experiments:
[1] = molecular target: Voltage-dependent T-type calcium channel subunit alpha-1H (Homo sapiens, UniProt O95180); test: inhibition of CACNA1H calcium flux – cell-based, SynthLib3 library, HEK293 Cav3.2, fluorescence (AID 493041); type: functional
[2] = molecular target: T1, Delta-type opioid receptor (Homo sapiens, UniProt P41143); test: HTS Image-Based Screen for Antagonists of the DOR Receptor. [Related pubchem assays (depositor defined):AID1777, AID1785, AID1786, AID2133]; type: functional
Mu-type opioid receptor [3] = molecular target: T2, Mu-type opioid receptor (Homo sapiens, UniProt P35372); test: HTS Image-Based Screen for Agonists of the MOR Receptor. [Related pubchem assays (depositor defined):AID1777, AID1785, AID1786, AID2133]; type: functional
[4] = molecular target: T1, Delta-type opioid receptor; test: HTS Image-Based Screen for Agonists of the DOR Receptor. [Related pubchem assays (depositor defined):AID1777, AID1786, AID2133]; type: functional
[5] = molecular target: T3, Kappa-type opioid receptor (Homo sapiens, UniProt P41145); type: functional
[6] = molecular target: T3, Kappa-type opioid receptor; type: functional; remark: listed apart in the source
[7] = molecular target: T3, Kappa-type opioid receptor; test: SAR analysis of small molecule agonists of the kappa opioid receptor via a luminescent beta-arrestin assay. [Related pubchem assays (depositor defined):AID1777, AID1786, AID1966, AID2133, AID2136, AID2348, AID2352, AID2357, AID2359, AID2370, AID2420, AID2478, AID2491, AID2492, AID2493, AID2497, AID2498, AID2500, AID449737, AID488822, AID488842]; type: functional
Mu-type opioid receptor [8] = molecular target: T2, Mu-type opioid receptor; test: mu opioid receptor activators, image-based, SAR follow-up (AID 2352); type: functional
[9] = molecular target: T1, Delta-type opioid receptor; test: DOR agonists, SAR follow-up, image-based (AID 2370); type: functional
[10] = molecular target: T3, Kappa-type opioid receptor; test: kappa opioid receptor blockers, image-based, SAR follow-up (AID 2348); type: functional
Mu-type opioid receptor [11] = molecular target: T2, Mu-type opioid receptor; test: mu opioid receptor blockers – image-based, SAR follow-up (AID 2420); type: functional;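 note: compounds added before stimulation of receptor with agonist DAMGO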
[12] = molecular target: T3, Kappa-type opioid receptor; test: kappa opioid receptor activation potency – imaging, image-based, SAR follow-up (AID 2359); type: functional
[13] = molecular target: T1, Delta-type opioid receptor; test: delta opioid receptor blockers – image-based, SAR follow-up (AID 2357); type: functional
[14] = molecular target: G-protein coupled receptor 35 (Homo sapiens, UniProt Q9HC97); test: inhibition of zaprinast-stimulated GPR35 beta-arrestin translocation – imaging, U2OS, beta-arrestin-GFP, zaprinast agonist, primary screen (AID 2058); type: functional;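 note: antagonist potency meaning inhibition of agonist-induced arrestin redistribution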
[15] = Trypanosoma cruzi growth suppression in host cells – NIH3T3 host cells, beta-gal luminescence, confirmation (AID 2044); type: functional, cell-based;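 note: intracellular parasites grown in NIH/3T3 mouse fibroblasts as host cells; luminescent beta-galactosidase reporter signal from transgenic T. cruzi replicating inside host cells; inhibitors lower the luminescence signal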
[16] = NIH3T3 cell viability loss – ATP luminescence, mouse fibroblasts, counter-screen, dose response (AID 2010); type: functional, cell-based;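 note: cells exposed to compound for about 90 hours before reading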
[17] = molecular target: DNA dC->dU-editing enzyme APOBEC-3A (Homo sapiens, UniProt P31941); test: Dose Response confirmation of small molecule APOBEC3A DNA Deaminase Inhibitors via a fluorescence-based single-stranded DNA deaminase assay. [Related pubchem assays (depositor defined):AID493011, AID493024]; type: functional
Troponin, cardiac muscle = Troponin, cardiac muscle (Homo sapiens, UniProt P19429+P45379+P63316); test: Fluorescence-based biochemical high throughput dose response assay for activators of the calcium sensitivity of cardiac Regulated Thin Filaments (RTF). [Related pubchem assays (depositor defined):AID493008, AID493018, AID504382, AID504383]; type: protein-complex assay
[18] = molecular target: DNA dC->dU-editing enzyme APOBEC-3G (Homo sapiens, UniProt Q9HC16); type: functional;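 note: Dose-response counterscreen measuring inhibition of APOBEC3G DNA deaminase activity, run while confirming APOBEC3A inhibitors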
[19] = molecular target: G-protein coupled receptor 55 (Homo sapiens, UniProt Q9Y2T6); test: blockers of GPR55 signalling, imaged – imaging, image-based, counter-screen for GPR35 antagonist project, SAR follow-up (AID 2397); type: functional
INS1 = test: INS-1E survival protection against cytokine death – cell-based, luminescence, retest, dose response (AID 449756); type: functional; details: Rattus norvegicus;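 note: cell death triggered by IL-1 beta plus TNF-alpha plus IFN-gamma mixture; protective hits raise ATP signal compared with cytokine alone wells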

T1 sequence (P41143 whole entry): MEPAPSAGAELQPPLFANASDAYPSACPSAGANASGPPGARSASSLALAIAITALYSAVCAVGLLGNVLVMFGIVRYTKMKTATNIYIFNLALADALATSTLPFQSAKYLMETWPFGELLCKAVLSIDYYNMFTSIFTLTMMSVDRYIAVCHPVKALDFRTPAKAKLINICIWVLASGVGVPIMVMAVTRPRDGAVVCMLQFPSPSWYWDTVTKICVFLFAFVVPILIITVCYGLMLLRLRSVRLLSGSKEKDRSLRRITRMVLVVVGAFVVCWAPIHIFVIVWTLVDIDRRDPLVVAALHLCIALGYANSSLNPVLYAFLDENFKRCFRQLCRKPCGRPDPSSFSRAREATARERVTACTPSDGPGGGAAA
T2 sequence (P35372 whole entry): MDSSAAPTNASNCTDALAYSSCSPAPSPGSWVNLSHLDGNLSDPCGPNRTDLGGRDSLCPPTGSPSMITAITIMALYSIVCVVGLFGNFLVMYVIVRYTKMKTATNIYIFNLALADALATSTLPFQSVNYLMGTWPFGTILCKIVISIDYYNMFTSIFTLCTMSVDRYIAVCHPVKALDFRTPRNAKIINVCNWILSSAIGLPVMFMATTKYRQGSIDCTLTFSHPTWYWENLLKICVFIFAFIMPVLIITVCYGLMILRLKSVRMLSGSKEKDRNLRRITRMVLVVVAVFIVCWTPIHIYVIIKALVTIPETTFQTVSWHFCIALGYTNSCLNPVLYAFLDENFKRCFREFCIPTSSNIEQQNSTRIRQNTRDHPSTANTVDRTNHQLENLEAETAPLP
T3 sequence (P41145 whole entry): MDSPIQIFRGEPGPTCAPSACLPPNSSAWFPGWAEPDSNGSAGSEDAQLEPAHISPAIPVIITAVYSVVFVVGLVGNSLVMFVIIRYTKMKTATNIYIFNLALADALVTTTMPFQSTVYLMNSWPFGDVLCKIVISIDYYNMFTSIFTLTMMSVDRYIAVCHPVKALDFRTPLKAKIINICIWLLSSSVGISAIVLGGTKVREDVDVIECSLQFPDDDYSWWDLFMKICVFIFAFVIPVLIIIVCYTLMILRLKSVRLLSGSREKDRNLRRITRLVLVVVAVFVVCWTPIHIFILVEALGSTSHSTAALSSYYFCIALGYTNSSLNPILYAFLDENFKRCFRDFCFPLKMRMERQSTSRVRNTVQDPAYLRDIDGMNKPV
Sequence of G-protein coupled receptor 35 (Q9HC97 whole entry): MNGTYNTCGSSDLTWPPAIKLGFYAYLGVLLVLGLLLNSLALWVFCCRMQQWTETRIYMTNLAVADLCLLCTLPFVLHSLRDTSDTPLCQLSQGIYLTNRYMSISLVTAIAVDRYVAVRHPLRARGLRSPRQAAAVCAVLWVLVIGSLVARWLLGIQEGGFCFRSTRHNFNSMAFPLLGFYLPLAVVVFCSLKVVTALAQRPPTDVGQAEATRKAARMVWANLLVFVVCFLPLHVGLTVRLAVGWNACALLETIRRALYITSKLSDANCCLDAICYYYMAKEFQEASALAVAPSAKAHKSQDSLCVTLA
Sequence of Voltage-dependent T-type calcium channel subunit alpha-1H (O95180 whole entry): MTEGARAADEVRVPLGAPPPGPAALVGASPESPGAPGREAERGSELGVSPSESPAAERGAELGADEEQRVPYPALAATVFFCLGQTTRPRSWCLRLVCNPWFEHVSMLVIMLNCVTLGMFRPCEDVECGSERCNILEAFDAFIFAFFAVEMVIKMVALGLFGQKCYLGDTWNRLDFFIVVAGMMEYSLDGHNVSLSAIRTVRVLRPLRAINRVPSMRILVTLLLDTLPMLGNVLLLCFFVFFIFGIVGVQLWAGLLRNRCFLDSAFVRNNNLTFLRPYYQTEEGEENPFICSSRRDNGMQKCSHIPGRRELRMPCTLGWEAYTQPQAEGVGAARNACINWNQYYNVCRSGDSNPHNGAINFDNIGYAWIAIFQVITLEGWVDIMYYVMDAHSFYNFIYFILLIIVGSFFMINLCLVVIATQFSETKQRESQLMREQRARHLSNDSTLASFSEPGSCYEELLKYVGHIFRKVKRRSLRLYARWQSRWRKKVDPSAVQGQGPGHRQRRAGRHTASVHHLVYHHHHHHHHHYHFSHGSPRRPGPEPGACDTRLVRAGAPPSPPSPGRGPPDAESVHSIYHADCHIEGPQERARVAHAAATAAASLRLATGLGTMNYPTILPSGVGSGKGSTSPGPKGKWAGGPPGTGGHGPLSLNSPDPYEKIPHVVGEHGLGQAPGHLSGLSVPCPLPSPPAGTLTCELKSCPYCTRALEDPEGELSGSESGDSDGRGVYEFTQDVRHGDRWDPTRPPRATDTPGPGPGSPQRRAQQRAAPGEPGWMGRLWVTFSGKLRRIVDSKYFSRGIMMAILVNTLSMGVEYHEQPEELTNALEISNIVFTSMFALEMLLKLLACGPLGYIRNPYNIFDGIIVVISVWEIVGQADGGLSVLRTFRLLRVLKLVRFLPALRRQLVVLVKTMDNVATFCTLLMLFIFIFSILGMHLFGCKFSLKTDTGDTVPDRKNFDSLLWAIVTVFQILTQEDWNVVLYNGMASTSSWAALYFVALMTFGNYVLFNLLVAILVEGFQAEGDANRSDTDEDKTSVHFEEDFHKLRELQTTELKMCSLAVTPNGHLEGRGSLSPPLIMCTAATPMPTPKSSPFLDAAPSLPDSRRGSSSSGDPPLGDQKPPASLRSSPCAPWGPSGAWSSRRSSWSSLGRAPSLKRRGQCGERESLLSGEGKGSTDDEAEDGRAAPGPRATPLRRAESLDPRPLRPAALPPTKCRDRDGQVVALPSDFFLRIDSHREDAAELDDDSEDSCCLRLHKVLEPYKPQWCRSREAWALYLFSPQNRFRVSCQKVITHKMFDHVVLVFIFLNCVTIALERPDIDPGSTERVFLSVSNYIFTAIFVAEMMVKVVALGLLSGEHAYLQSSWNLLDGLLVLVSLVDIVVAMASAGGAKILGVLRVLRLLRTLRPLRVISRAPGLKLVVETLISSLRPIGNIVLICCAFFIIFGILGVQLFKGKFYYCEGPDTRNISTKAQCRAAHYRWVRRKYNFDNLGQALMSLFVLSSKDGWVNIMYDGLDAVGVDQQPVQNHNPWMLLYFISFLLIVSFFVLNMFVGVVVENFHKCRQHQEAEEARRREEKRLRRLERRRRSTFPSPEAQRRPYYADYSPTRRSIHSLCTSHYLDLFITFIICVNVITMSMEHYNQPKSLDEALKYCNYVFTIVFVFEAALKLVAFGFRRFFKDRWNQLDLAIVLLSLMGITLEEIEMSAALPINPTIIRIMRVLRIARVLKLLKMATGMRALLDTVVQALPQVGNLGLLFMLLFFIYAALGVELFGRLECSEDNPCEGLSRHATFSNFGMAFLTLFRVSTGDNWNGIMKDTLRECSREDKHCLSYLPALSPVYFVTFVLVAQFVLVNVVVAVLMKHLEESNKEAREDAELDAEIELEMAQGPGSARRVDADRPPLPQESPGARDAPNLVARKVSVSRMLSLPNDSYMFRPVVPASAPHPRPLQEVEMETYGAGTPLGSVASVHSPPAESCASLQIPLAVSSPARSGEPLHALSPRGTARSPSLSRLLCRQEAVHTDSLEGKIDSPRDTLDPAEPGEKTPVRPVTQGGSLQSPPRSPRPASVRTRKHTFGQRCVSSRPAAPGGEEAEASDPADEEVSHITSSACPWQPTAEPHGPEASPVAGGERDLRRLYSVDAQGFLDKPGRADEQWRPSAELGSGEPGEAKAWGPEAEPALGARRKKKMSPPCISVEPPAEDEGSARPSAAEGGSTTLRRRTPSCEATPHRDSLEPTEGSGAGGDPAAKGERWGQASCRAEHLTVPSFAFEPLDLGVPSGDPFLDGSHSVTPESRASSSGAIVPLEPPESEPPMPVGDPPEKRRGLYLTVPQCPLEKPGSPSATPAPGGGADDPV
Sequence of G-protein coupled receptor 55 (Q9Y2T6 whole entry): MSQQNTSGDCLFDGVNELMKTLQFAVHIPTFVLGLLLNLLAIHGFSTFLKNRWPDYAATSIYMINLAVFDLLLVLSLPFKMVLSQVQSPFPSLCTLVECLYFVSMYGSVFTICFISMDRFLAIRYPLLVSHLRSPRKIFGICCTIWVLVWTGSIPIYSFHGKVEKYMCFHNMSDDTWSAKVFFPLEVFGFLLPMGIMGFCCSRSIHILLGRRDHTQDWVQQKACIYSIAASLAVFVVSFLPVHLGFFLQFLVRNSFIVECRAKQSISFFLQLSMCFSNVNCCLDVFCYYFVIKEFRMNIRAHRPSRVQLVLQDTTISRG
Sequence of DNA dC->dU-editing enzyme APOBEC-3G (Q9HC16 whole entry): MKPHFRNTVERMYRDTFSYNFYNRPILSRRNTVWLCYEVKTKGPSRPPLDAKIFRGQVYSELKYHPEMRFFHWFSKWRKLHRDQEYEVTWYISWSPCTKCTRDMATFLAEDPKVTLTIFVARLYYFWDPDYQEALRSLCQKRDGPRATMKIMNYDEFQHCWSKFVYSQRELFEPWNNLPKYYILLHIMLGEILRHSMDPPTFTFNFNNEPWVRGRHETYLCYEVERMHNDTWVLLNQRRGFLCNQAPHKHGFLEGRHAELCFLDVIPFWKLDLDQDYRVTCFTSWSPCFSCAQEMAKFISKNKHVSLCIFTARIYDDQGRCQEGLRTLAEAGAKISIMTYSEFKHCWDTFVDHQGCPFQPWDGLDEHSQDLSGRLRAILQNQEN
Sequence of DNA dC->dU-editing enzyme APOBEC-3A (P31941 whole entry): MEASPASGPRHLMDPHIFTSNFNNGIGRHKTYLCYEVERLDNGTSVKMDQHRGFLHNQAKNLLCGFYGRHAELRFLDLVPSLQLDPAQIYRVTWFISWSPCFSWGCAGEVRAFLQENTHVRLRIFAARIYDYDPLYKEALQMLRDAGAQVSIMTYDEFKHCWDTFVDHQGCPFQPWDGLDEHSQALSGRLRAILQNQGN

For `O=C(NCC1[C@H]2CN(CC3CCCC3)C[C@@H]12)c1cc(Cl)cc(Cl)c1` (stereo partly specified), which EC50 [1] is on record?
The EC50 was 3 µM (active).

For `CCC(C)(C(=O)NC1CCCC1)N(Cc1cccs1)C(=O)c1ccccn1` (stereo unspecified), which IC50 [2] is on record?
The IC50 was > 32 µM (inactive).

What about the EC50 (Mu-type opioid receptor [3]) of the same compound?
Its EC50 is > 32 µM (inactive).

What about the EC50 [4] of the same compound?
The EC50 was > 32 µM (inactive).

What about the pEC50 [5] of the same compound?
Its pEC50 is 5.73.

And the pEC50 [6]?
Its pEC50 is 5.67.

What about the EC50 [7] of the same compound?
The EC50 was 2.07 µM (active).

What about the EC50 (Mu-type opioid receptor [8]) of the same compound?
Its EC50 is > 32 µM (inactive).

What about the EC50 [9] of the same compound?
Its EC50 is > 32 µM (inactive).

And the IC50 [10]?
Its IC50 is > 32 µM (inactive).

And the IC50 (Mu-type opioid receptor [11])?
Its IC50 is > 32 µM (inactive).

And the EC50 [12]?
The EC50 was 0.806 µM (active).

What about the IC50 [13] of the same compound?
The IC50 was > 32 µM (inactive).

Which IC50 [14] does the source give for `C=CCn1c(C)c(/C=C/c2cc[n+](C)cc2)c2ccccc21` here?
Its IC50 is 1.97 µM (active).

What about the EC50 [15] of the same compound?
Its EC50 is 0.69 µM (active).

What about the EC50 [16] of the same compound?
Its EC50 is > 60 µM (not active).

What about the IC50 [17] of the same compound?
Its IC50 is > 100 µM (inactive).

And the EC50 (Troponin, cardiac muscle)?
Its EC50 is 1.88 µM (active).

And the IC50 [18]?
Its IC50 is 16.3 µM (active).

And the IC50 [19]?
Its IC50 is 2.79 µM (active).

What about the AC50 (INS1) of the same compound?
The AC50 was 6.54 µM (active).
